Data: patent US11478558B2, “Prostate-specific membrane antigen targeted high-affinity agents for endoradiotherapy of prostate cancer” (The Johns Hopkins University, priority 2017, dated 2022)

Assays:
[1] = tested on: PSMA(+) PC3 PIP cells; assay: Cell uptake, cell surface binding and internalization in PSMA(+) PC3 PIP cells; assay type: cell-based, human; conditions: for Blockade PC3 PIP: ZJ43 10 μM; for total uptake within the PSMA(+) PC3 PIP cells: 1 h to 24 h
[2] = Blood analysis and necropsy after radiotherapy; assay type: in vivo, NOD/SCID mice; conditions: one-year post-treatment in tumor-free mice, 111 MBq
[3] = tested on: PSMA(−) PC3 flu cells; assay: Cell uptake in PSMA(−) PC3 flu cells; assay type: cell-based, human
[4] = tested on: PSMA+ PC3 PIP tumors; assay: Radiopharmaceutical therapy in PC3 PIP flank tumor growth delay model; assay type: in vivo, NOD/SCID mice; conditions: for Tumor disappear (number of mice): week 8 post-treatment; for Average final body weight: single i.v. dose 111 MBq (3 mCi)
Method: (§1) A pilot treatment study using NOD/SCID mice (n=10 per group) bearing PSMA+ PC3 PIP tumors with a single intravenous dose of 111 MBq (3 mCi) of agents ^177Lu-PSMA-617, ^177Lu-1, ^177Lu-3 and ^177Lu-5 and the control group (with saline treatment) were performed (Table 8). Volume of the all control group mice reached >5-fold of their initial tumor volume within 14 days. Mouse euthanized for treated group within 4 weeks of post-injection was mainly due to sudden body weight loss and not related to tumor growth. […] The difference among treatment groups was statistically significant (P=0.002) by the log-rank test compared to the untreated group. […] After 8-weeks, three mice from each treated group were used for detailed blood analysis and necropsy study. All animals underwent radiotherapy study had normal creatinine (0.3-0.4 mg/dL) and blood urea nitrogen levels. […] Additionally, a significant lowering of platelet for all three treated mice from ^177Lu-PSMA-617 compared control group and other treated groups.
Median survival for the ^177Lu-PSMA-617 was 133 days vs. 234 days for ^177Lu-1.
The remaining treated mice survived tumor-free for 10 months and were evaluated for toxicity.
(§2) Antitumor efficacy studies were performed in PC3 PIP flank tumor growth delay model to evaluate the therapeutic efficacy of a single dose intravenous injection of ^177Lu-L1, ^177Lu-L3, ^177Lu-L5 and ^177Lu-PSMA-617 vs. saline. This was a head-to-head comparison study and same batch of tumor-bearing mice and radioactivity. The study was commenced 14-18 days post-inoculation of the xenografts, when all the mice had tumor volume of about ˜60-85 mm^3 (Table 8). All the living mice were monitored for 8 weeks to monitor the growth delay. Mice body weight and tumor volume were monitored every 3 days throughout the experiment. Endpoint criteria defined by the institute ACUC was weight loss≥15%, a tumor volume>1800 mm^3, active ulceration of the tumor or abnormal behavior indicating pain or unease. After 8-weeks, three mice from each group were submitted for detail necropsy and blood analysis. Mice group treated with ^177Lu-1 and ^177Lu-PSMA-617 were continued to monitor until the endpoint. These definitions were also used for Kaplan-Meier analysis. The probability of reaching 5 times the initial tumor volume was characterized using Kaplan-Meier curves, and comparison was performed using the log-rank test. The formula used for calculation of tumor volume was V=width^2×length/2. Toxicity of the ^177Lu-treatment groups after 8-weeks and in healthy CD-1 (n=3) mice treated with 111 MBq was evaluated by pathologic examination at the Johns Hopkins Pathology Core facility with serum metabolic panel, blood counts, and full necropsy including detailed histopathology of kidneys, salivary glands and lacrimal glands.

[5] = tested on: PSMA(+) PC3 PIP and PSMA(−) PC3 flu tumor xenografts; assay: Biodistribution of 177Lu compounds (Example 5)
[6] = tested on: PSMA(+) tumors and normal tissues; assay: Self-blocking (receptor blockade) biodistribution; assay type: in vivo, mouse; conditions: at 10-fold kidney blockade
Text: Development of receptor blockade for normal organs. The blocking effect of 1 was quantified in normal tissues using ^177Lu-1. A drastic reduction of renal uptake was observed while maintaining high uptake in PSMA(+) tumors (FIG. 12). […] Blocking strategies. […] These daughters, once formed, are unlikely to associate with the chelate construct due to high atomic recoil-energy as a result of α-decay. Without wishing to be bound to any one particular theory, it is thought that acute salivary gland toxicity caused by ^225Ac-PSMA-617 is most likely due to PSMA-based internalization of the agent followed by daughter release in striated duct or acini. Both biodistribution data and α-camera imaging will be used to interpret the data. Different pharmacologic agents will be evaluated to avoid renal and salivary gland radio toxicity. […]

[7] = tested on: PC3-ML-Luc-PSMA; assay: Treatment study in micrometastatic PC3-ML-Luc-PSMA model; assay type: in vivo, mouse; conditions: 37 MBq
Text: (middle) Changes in bodyweight during the treatment study. (bottom) Kaplan-Meier survival curve for treatment study in micrometastatic PC3-ML-Luc-PSMA model, median survival for 51 days (untreated) vs 52 days for ^177Lu-PSMA-617 (37 MBq) and 56 days for 225Ac-1 (37 kBq) and 79 days for 225Ac-1 (74 kBq);

[8] = Blood analysis and necropsy after radiotherapy; assay type: in vivo, NOD/SCID mice
Method: as §1
Significant and concerning changes were identified in testes, and lacrimal grands primarily (FIG. 25) for all treated groups. […] Parotid glands, usually adjacent to exorbital lacrimal gland, are conspicuously spared and there were mild changes in the group treated ^177Lu-PSMA-617. […] T lymphoblastic lymphoma is accelerated by irradiation and some carcinogens, and is associated with interactions of endogenous retroviruses/retroelements in NOD/SCID mouse strains. […] The cells are large up to 25 μm, with very large nuclei (for a mouse) usually 2-3 nucleoli, and a high mitotic rate. Testis and lacrimal gland degenerative changes indicate that this animal did receive a treatment similar to other treated mice.
as §2

[9] = 111 MBq (3 mCi), after eight weeks, n=3

Compound	Cell uptake PC3 PIP ([1]; 1 h)	PC3 PIP cell Int (internalization) ([1]; 1 h)	Blockade PC3 PIP ([1]; 1 h)	total uptake within the PSMA(+) PC3 PIP cells [1]	Cell uptake PC3 PIP ([1]; 2 h)	PC3 PIP, line without name (position of cell internalization) ([1]; 2 h)	Cell uptake PC3 PIP ([1]; 4 h)	PC3 PIP cell int (internalization) ([1]; 4 h)	Cell uptake PC3 PIP ([1]; 24 h)	PC3 PIP cell int (internalization) ([1]; 24 h)	Cell uptake PC3 flu ([3]; 1 h)	Cell uptake PC3 flu ([3]; 2 h)	Cell uptake PC3 flu ([3]; 4 h)	Cell uptake PC3 flu ([3]; 24 h)	Median survival After 8 weeks post-treatment ([4]; 111 MBq)	Tumor disappear (number of mice) ([4]; 111 MBq)	Average final body weight [4] [gram]	further results
O=C([O-])CN1CCN(CC(=O)[O-])CCN(CC(=O)NCCCCC(=O)N(CCCC[C@H](NC(=O)N[C@@H](CCC(=O)O)C(=O)O)C(=O)O)Cc2ccc(Br)cc2)CCN(CC(=O)[O-])CC1.[177Lu+3] [^177Lu-L1]	32.1 ± 0.1 % incubated dose per 1 x 10^6 cells	18.8 ± 0.8 % incubated dose per 1 x 10^6 cells	0.2 ± 0.0 % incubated dose per 1 x 10^6 cells	~30 % of the incubated dose	36.7 ± 0.5 % incubated dose per 1 x 10^6 cells	22.0 ± 0.6 % incubated dose per 1 x 10^6 cells	39.1 ± 0.5 % incubated dose per 1 x 10^6 cells	26.6 ± 1.2 % incubated dose per 1 x 10^6 cells	46.2 ± 0.2 % incubated dose per 1 x 10^6 cells	24.6 ± 0.2 % incubated dose per 1 x 10^6 cells	0.2 ± 0.0 % incubated dose per 1 x 10^6 cells	0.1 ± 0.0 % incubated dose per 1 x 10^6 cells	0.1 ± 0.0 % incubated dose per 1 x 10^6 cells	0.2 ± 0.1 % incubated dose per 1 x 10^6 cells	Not reached	disappear 7	26.1 ± 1.4	radiation nephropathy at necropsy [2]: did not reveal any radiation nephropathy; Mouse death (number of mice) ([4]; 111 MBq, up to week 8 post-treatment): Death 1
O=C([O-])CN1CCN(CC(=O)[O-])CCN(C(CCC(=O)NCCCCC(=O)N(CCCC[C@H](NC(=O)N[C@@H](CCC(=O)O)C(=O)O)C(=O)O)Cc2ccc(Br)cc2)C(=O)O)CCN(CC(=O)[O-])CC1.[177Lu+3] (stereo partly shown) [^177Lu-L9]																		cell uptake and internalization [1]: ~70%; Kidney uptake ([5]; 2 h): 149.7±32.0 % ID/g; Kidney uptake ([5]; 24 h (so in the source)): 5.9±2.7 % ID/g; fold renal clearance ([5]; within 24 h): ~30 fold; effect of self-blockade on tumor uptake [6]: significant tumor uptake blockade
O=C([O-])CN1CCN(CC(=O)[O-])CCN(CC(=O)NCC2CCC(C(=O)N[C@@H](Cc3ccc4ccccc4c3)C(=O)NCCCC[C@H](NC(=O)N[C@@H](CCC(=O)O)C(=O)O)C(=O)O)CC2)CCN(CC(=O)[O-])CC1.[177Lu+3] (stereo partly shown) [^177Lu-PSMA-617, reference compound]	42.2 ± 0.80 % incubated dose per 1 x 10^6 cells	18.8 ± 1.2 % incubated dose per 1 x 10^6 cells	0.1 ± 0.0 % incubated dose per 1 x 10^6 cells	~40 % of the incubated dose	44.6 ± 1. % incubated dose per 1 x 10^6 cells	21.1 ± 0.9 % incubated dose per 1 x 10^6 cells	47.6 ± 1.13 % incubated dose per 1 x 10^6 cells	26.1 ± 1.0 % incubated dose per 1 x 10^6 cells	54.2 ± 0.21 % incubated dose per 1 x 10^6 cells	26.4 ± 0.8 % incubated dose per 1 x 10^6 cells	0.1 ± 0.01 % incubated dose per 1 x 10^6 cells	0.1 ± 0.0 % incubated dose per 1 x 10^6 cells	0.1 ± 0.06 % incubated dose per 1 x 10^6 cells	0.1 ± 0.01 % incubated dose per 1 x 10^6 cells	Not reached	disappear 5	24.6 ± 3.6	Tumors above stated relative tumor growth after week 8 post-treatment (Vt/V0) ([4]; 111 MBq): one tumor > 4; median survival ([4]; 111 MBq, followed to predefined end-point): 133 days; Kidney uptake ([5]; 3 h post-injection): 9.81±6.54 % ID/g; median survival [7]: 52 days; Albumin [8, 9]: 2.9 ± 0.2 g/dL; Blood urea nitrogen [8, 9]: 23.3 ± 2.5 mg/dL; Hematocrit [8, 9]: 42.9 ± 4.5%; Hemoglobin [8, 9]: 12.8 ± 1.0 g/dL; Lymphocytes [8, 9]: 0.7 ± 0.1 K/μL; Mean Corpuscular Value(MCV) [8, 9]: 52.2 ± 1.6 fL; Neutrophils [8, 9]: 3.5 ± 3.8 K/μL; Platelets [8, 9]: 916.0 ± 141.6 K/μL; Red blood cells [8, 9]: 8.2 ± 0.7 M/μL; Total protein [8, 9]: 5.5 ± 0.5 g/dL; White blood cells [8, 9]: 5.05 ± 4.1 K/μL; H&E pathology of testis ([8]; 111 MBq, after 8 weeks): most significant changes in testis; neutrophil counts ([8]; 111 MBq, after 8 weeks): up to 3.5±3.8 K/mL
